Each structure is given as a SMILES string.

The target of the first experiment is T1, human GluN1/GluN2B NMDA receptors (Homo sapiens, UniProt Q13224).
T1 construct: expressed in transfected cells
T1 sequence (Q13224 27-1484, other chains not shown): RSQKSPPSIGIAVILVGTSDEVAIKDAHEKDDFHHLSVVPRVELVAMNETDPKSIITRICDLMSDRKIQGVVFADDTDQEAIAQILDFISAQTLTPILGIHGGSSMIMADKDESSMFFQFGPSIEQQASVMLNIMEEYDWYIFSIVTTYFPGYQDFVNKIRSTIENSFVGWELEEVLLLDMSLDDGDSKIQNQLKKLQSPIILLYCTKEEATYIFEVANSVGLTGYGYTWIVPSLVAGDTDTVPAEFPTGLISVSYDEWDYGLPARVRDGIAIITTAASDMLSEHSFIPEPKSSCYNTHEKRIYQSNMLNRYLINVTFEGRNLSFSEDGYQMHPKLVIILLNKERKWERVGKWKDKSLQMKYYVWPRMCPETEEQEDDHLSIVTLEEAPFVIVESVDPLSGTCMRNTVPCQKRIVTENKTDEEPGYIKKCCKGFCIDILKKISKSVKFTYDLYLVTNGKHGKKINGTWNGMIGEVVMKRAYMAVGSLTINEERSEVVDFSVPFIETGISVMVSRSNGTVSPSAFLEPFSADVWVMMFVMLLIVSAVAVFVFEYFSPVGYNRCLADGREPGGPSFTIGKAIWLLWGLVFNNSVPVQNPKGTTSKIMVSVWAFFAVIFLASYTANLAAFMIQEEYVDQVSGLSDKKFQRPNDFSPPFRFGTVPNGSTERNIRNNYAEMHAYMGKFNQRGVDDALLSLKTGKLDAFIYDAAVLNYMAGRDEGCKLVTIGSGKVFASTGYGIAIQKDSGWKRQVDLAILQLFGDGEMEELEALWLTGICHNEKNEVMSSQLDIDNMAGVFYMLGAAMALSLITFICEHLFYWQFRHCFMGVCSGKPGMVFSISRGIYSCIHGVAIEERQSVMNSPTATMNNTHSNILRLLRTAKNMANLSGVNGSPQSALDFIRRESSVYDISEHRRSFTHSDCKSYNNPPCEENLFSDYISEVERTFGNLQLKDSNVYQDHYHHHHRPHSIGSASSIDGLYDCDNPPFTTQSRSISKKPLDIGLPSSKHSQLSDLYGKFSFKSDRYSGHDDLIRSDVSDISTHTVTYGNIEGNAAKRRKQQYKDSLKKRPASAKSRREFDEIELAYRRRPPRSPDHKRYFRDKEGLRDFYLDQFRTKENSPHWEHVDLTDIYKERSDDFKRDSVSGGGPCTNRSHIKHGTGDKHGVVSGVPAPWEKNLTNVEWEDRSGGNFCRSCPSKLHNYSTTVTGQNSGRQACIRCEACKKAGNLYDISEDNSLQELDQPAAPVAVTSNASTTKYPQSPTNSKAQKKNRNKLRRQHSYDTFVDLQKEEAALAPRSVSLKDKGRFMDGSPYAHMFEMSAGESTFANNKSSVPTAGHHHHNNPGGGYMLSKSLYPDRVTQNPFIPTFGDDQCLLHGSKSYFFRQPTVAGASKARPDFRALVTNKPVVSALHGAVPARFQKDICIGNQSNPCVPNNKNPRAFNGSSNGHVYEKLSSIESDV
In words: Cell-based calcium flux (FLIPR) assay on cloned human NR1/NR2B ion channels expressed in mammalian cells (standard and HTS buffer variants).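 Note: stable Tet-On inducible cell line, Ca2+ influx triggered by glutamate at about EC40 plus 10 µM glycine, fluorescent dye read-out over 5 min, normalized to control wells.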 The settings on record: HTS assay buffer (1.5 mM MgCl2 in dye loading buffer; 150 mM NaCl, 3 mM KCl in assay buffer), human GluN1/GluN2B, read-out: NR2B IC50 (μM) HTS assay.
Take `COc1cc(F)ccc1-c1cnc2[nH]c(=O)n(CC(N)=O)c2c1` [Example 433, 2-[6-(4-Fluoro-2-methoxy-phenyl)-2-oxo-3H-imidazo[4,5-b]pyridin-1-yl]acetamide]: the half-maximal inhibitory concentration (IC50) stood at 0.867 µM.

Regarding `CNC(=O)Cn1c(=O)[nH]c2ncc(-c3ccc(Cl)cc3)cc21` [Example 436, 2-[6-(4-Chlorophenyl)-2-oxo-3H-imidazo[4,5-b]pyridin-1-yl]-N-methyl-acetamide], the IC50 came out at 4.7 µM.

As for `CNC(=O)Cn1c(=O)[nH]c2ncc(-c3cc(C)cc(C)c3)cc21` [Example 438, 2-[6-(3,5-Dimethylphenyl)-2-oxo-3H-imidazo[4,5-b]pyridin-1-yl]-N-methyl-acetamide], the half-inhibitory concentration (IC50) was found to be 0.394 µM.

As for `CNC(=O)Cn1c(=O)[nH]c2ncc(-c3ccc(OC)c(C)c3)cc21` [Example 439, 2-[6-(4-Methoxy-3-methyl-phenyl)-2-oxo-3H-imidazo[4,5-b]pyridin-1-yl]-N-methyl-acetamide], the IC50 amounted to 3.37 µM.

Turning to `CCOc1ccccc1-c1cnc2[nH]c(=O)n(CC(=O)NC)c2c1` [Example 441, 2-[6-(2-Ethoxyphenyl)-2-oxo-3H-imidazo[4,5-b]pyridin-1-yl]-N-methyl-acetamide], the half-maximal inhibitory concentration (IC50) was 2.44 µM.

In the case of `COCCNC(=O)Cn1c(=O)[nH]c2ncc(-c3cccc(C(F)(F)F)c3)cc21` [Example 442, N-(2-Methoxyethyl)-2-[2-oxo-6-[3-(trifluoromethyl)phenyl]-3H-imidazo[4,5-b]pyridin-1-yl]acetamide], the IC50 turned out to be 0.197 µM.

Regarding `CCOc1ccc(F)cc1-c1cnc2[nH]c(=O)n(CC(=O)NCCOC)c2c1` [Example 443, 2-[6-(2-Ethoxy-5-fluoro-phenyl)-2-oxo-3H-imidazo[4,5-b]pyridin-1-yl]-N-(2-methoxyethyl)acetamide], the concentration for half-maximal inhibition (IC50) turned out to be 1.32 µM.

`COCCNC(=O)Cn1c(=O)[nH]c2ncc(-c3ccc(OC)cc3)cc21` [Example 444, N-(2-Methoxyethyl)-2-[6-(4-methoxyphenyl)-2-oxo-3H-imidazo[4,5-b]pyridin-1-yl]acetamide]: the concentration for half-maximal inhibition (IC50) was 0.747 µM.

As for `COCCNC(=O)Cn1c(=O)[nH]c2ncc(-c3cccnc3)cc21` [Example 445, N-(2-Methoxyethyl)-2-[2-oxo-6-(3-pyridyl)-3H-imidazo[4,5-b]pyridin-1-yl]acetamide], the 50% inhibitory concentration (IC50) was more than 29 µM.

In the case of `CCOc1cccc(-c2cnc3[nH]c(=O)n(CC(=O)NC4CC4)c3c2)c1` [Example 449, N-Cyclopropyl-2-[6-(3-ethoxyphenyl)-2-oxo-3H-imidazo[4,5-b]pyridin-1-yl]acetamide], the IC50 worked out at 0.638 µM.

Consider `COc1cccc(-c2cnc3[nH]c(=O)n(CC(=O)NC4CC4)c3c2)c1` [Example 450, N-Cyclopropyl-2-[6-(3-methoxyphenyl)-2-oxo-3H-imidazo[4,5-b]pyridin-1-yl]acetamide], for which the IC50 came out at 1.76 µM.

As for `COc1ccc(-c2cnc3[nH]c(=O)n(CC(=O)NC4CC4)c3c2)cc1C` [Example 451, N-Cyclopropyl-2-[6-(4-methoxy-3-methyl-phenyl)-2-oxo-3H-imidazo[4,5-b]pyridin-1-yl]acetamide], the half-maximal inhibitory concentration (IC50) worked out at 1.03 µM.

Regarding `COc1cc(F)ccc1-c1cnc2[nH]c(=O)n(CC(=O)NC3CC3)c2c1` [Example 452, N-Cyclopropyl-2-[6-(4-fluoro-2-methoxy-phenyl)-2-oxo-3H-imidazo[4,5-b]pyridin-1-yl]acetamide], the IC50 turned out to be 0.071 µM.

Regarding `O=C(Cn1c(=O)[nH]c2ncc(-c3ccc(Cl)cc3)cc21)NC1CC1` [Example 453, 2-[6-(4-Chlorophenyl)-2-oxo-3H-imidazo[4,5-b]pyridin-1-yl]-N-cyclopropyl-acetamide], the half-inhibitory concentration (IC50) came out at 0.1 µM.

With `COc1ccc(-c2cnc3[nH]c(=O)n(CC(=O)NC4CC4)c3c2)c(OC)c1` [Example 454, N-Cyclopropyl-2-[6-(2,4-dimethoxyphenyl)-2-oxo-3H-imidazo[4,5-b]pyridin-1-yl]acetamide], the IC50 amounted to 1.94 µM.

As for `O=C(Cn1c(=O)[nH]c2ncc(-c3ccc(Cl)cc3)cc21)c1cccs1` [Example 459, 6-(4-Chlorophenyl)-1-[2-oxo-2-(2-thienyl)ethyl]-3H-imidazo[4,5-b]pyridin-2-one], the IC50 turned out to be 1.42 µM.

As to `CCOc1ccc(F)cc1-c1cnc2[nH]c(=O)n(CC(=O)c3cccs3)c2c1` [Example 460, 6-(2-Ethoxy-5-fluoro-phenyl)-1-[2-oxo-2-(2-thienyl)ethyl]-3H-imidazo[4,5-b]pyridin-2-one], the IC50 stood at 1.77 µM.

For the compound `CCOc1cccc(-c2cnc3[nH]c(=O)n(CC(=O)c4cccs4)c3c2)c1` [Example 463, 6-(3-Ethoxyphenyl)-1-[2-oxo-2-(2-thienyl)ethyl]-3H-imidazo[4,5-b]pyridin-2-one], the IC50 is 0.36 µM.

In the case of `COc1ccc(-c2cnc3[nH]c(=O)n(CC4CC4)c3c2)c(OC)c1` [Example 465, 1-(Cyclopropylmethyl)-6-(2,4-dimethoxyphenyl)-3H-imidazo[4,5-b]pyridin-2-one], the half-inhibitory concentration (IC50) came out at 14.4 µM.

With `CCOc1ccc(F)cc1-c1cnc2[nH]c(=O)n(CC3CC3)c2c1` [Example 466, 1-(Cyclopropylmethyl)-6-(2-ethoxy-5-fluoro-phenyl)-3H-imidazo[4,5-b]pyridin-2-one], the IC50 stood at 15.8 µM.

Consider `COc1cc(F)ccc1-c1cnc2[nH]c(=O)n(CC3CC3)c2c1` [Example 467, 1-(Cyclopropylmethyl)-6-(4-fluoro-2-methoxy-phenyl)-3H-imidazo[4,5-b]pyridin-2-one], for which the IC50 amounted to 0.305 µM.

For `COc1ccc(-c2cnc3[nH]c(=O)n(CC4CC4)c3c2)cc1C` [Example 468, 1-(Cyclopropylmethyl)-6-(4-methoxy-3-methyl-phenyl)-3H-imidazo[4,5-b]pyridin-2-one], the IC50 is 4.17 µM.

On to `COc1ccc(-c2cnc3[nH]c(=O)n(CC4CC4)c3c2)cc1F` [Example 469, 1-(Cyclopropylmethyl)-6-(3-fluoro-4-methoxy-phenyl)-3H-imidazo[4,5-b]pyridin-2-one], for which the IC50 is 0.944 µM.

The same experiment, now with this note: standard assay buffer (0.5 mM MgCl2 in dye loading buffer; 137 mM NaCl, 4 mM KCl in assay buffer), human GluN1/GluN2B, read-out: NR2B IC50 (μM) standard assay.
Regarding `NC(=O)Cn1c(=O)[nH]c2ncc(-c3cccc(C(F)(F)F)c3)cc21` [Example 432, 2-[2-Oxo-6-[3-(trifluoromethyl)phenyl]-3H-imidazo[4,5-b]pyridin-1-yl]acetamide], the IC50 is 0.962 µM.

With `NC(=O)Cn1c(=O)[nH]c2ncc(-c3ccc(F)c(Cl)c3)cc21` [Example 434, 2-[6-(3-Chloro-4-fluoro-phenyl)-2-oxo-3H-imidazo[4,5-b]pyridin-1-yl]acetamide], the IC50 amounted to 0.583 µM.

Consider `CNC(=O)Cn1c(=O)[nH]c2ncc(-c3cccc(C(F)(F)F)c3)cc21` [Example 435, N-Methyl-2-[2-oxo-6-[3-(trifluoromethyl)phenyl]-3H-imidazo[4,5-b]pyridin-1-yl]acetamide], for which the IC50 was found to be 0.264 µM.

Turning to `CNC(=O)Cn1c(=O)[nH]c2ncc(-c3ccc(F)cc3C)cc21` [Example 437, 2-[6-(4-Fluoro-2-methyl-phenyl)-2-oxo-3H-imidazo[4,5-b]pyridin-1-yl]-N-methyl-acetamide], the 50% inhibitory concentration (IC50) is 0.219 µM.

As to `CNC(=O)Cn1c(=O)[nH]c2ncc(-c3ccc(F)cc3OC)cc21` [Example 440, 2-[6-(4-Fluoro-2-methoxy-phenyl)-2-oxo-3H-imidazo[4,5-b]pyridin-1-yl]-N-methyl-acetamide], the IC50 turned out to be 0.358 µM.

Take `COCCNC(=O)Cn1c(=O)[nH]c2ncc(-c3ccc(F)cc3OC)cc21` [Example 446, 2-[6-(4-Fluoro-2-methoxy-phenyl)-2-oxo-3H-imidazo[4,5-b]pyridin-1-yl]-N-(2-methoxyethyl)acetamide]: the IC50 is 0.204 µM.

As to `O=C(Cn1c(=O)[nH]c2ncc(-c3cc(F)cc(F)c3)cc21)NC1CC1` [Example 447, N-Cyclopropyl-2-[6-(3,5-difluorophenyl)-2-oxo-3H-imidazo[4,5-b]pyridin-1-yl]acetamide], the 50% inhibitory concentration (IC50) was 0.184 µM.

As to `O=C(Cn1c(=O)[nH]c2ncc(-c3ccc(F)c(Cl)c3)cc21)NC1CC1` [Example 448, 2-[6-(3-Chloro-4-fluoro-phenyl)-2-oxo-3H-imidazo[4,5-b]pyridin-1-yl]-N-cyclopropyl-acetamide], the IC50 came to 0.008 µM.

On to `COc1cccc(F)c1-c1cnc2[nH]c(=O)n(CC(=O)NC3CC3)c2c1` [Example 455, N-Cyclopropyl-2-[6-(2-fluoro-6-methoxy-phenyl)-2-oxo-3H-imidazo[4,5-b]pyridin-1-yl]acetamide], for which the IC50 turned out to be 0.416 µM.

For `CCOc1ccccc1-c1cnc2[nH]c(=O)n(CC(=O)NC3CC3)c2c1` [Example 456, N-Cyclopropyl-2-[6-(2-ethoxyphenyl)-2-oxo-3H-imidazo[4,5-1D]pyridin-1-yl]acetamide], the concentration for half-maximal inhibition (IC50) came out at 0.146 µM.

`COc1ccc(-c2cnc3[nH]c(=O)n(CC(=O)c4cccs4)c3c2)cc1F` [Example 457, 6-(3-Fluoro-4-methoxy-phenyl)-1-[2-oxo-2-(2-thienyl)ethyl]-3H-imidazo[4,5-b]pyridin-2-one]: the concentration for half-maximal inhibition (IC50) amounted to 0.33 µM.

In the case of `CCOc1ccccc1-c1cnc2[nH]c(=O)n(CC(=O)c3cccs3)c2c1` [Example 458, 6-(2-Ethoxyphenyl)-1-[2-oxo-2-(2-thienyl)ethyl]-3H-imidazo[4,5-b]pyridin-2-one], the half-maximal inhibitory concentration (IC50) was 0.135 µM.

`COc1ccc(-c2cnc3[nH]c(=O)n(CC(=O)c4cccs4)c3c2)cc1` [Example 461, 6-(4-Methoxyphenyl)-1-[2-oxo-2-(2-thienyl)ethyl]-3H-imidazo[4,5-b]pyridin-2-one]: the concentration for half-maximal inhibition (IC50) worked out at 0.054 µM.

On to `COc1cc(F)ccc1-c1cnc2[nH]c(=O)n(CC(=O)c3cccs3)c2c1` [Example 462, 6-(4-Fluoro-2-methoxy-phenyl)-1-[2-oxo-2-(2-thienyl)ethyl]-3H-imidazo[4,5-b]pyridin-2-one], for which the concentration for half-maximal inhibition (IC50) came to 0.255 µM.

`O=C(Cn1c(=O)[nH]c2ncc(-c3ccc(F)c(Cl)c3)cc21)c1cccs1` [Example 464, 6-(3-Chloro-4-fluoro-phenyl)-1-[2-oxo-2-(2-thienyl)ethyl]-3H-imidazo[4,5-b]pyridin-2-one]: the half-maximal inhibitory concentration (IC50) was determined as 0.359 µM.
